Columns and labels:
[1] = Liver microsomal stability, rat; assay type: in vitro ADME; conditions: rat liver microsomes, 1 μM (verapamil 0.5 μM)
Experimental: (§1) The liver microsomes of humans, rats, and mice were purchased from Merck (human, #M0567; rat, #M9066; mouse, #M9441). The metabolic stability of 6-shogaol and STCs (1 μM effective concentration; 5 μL) was mixed with liver microsomes (0.5 mg mL^−1; 445 μL) in a microcentrifuge tube. Verapamil (0.5 μM) was used as the positive control. The microsome and compound mixture were shaken on a plate shaker for 5 min to ensure homogeneity. NADPH (1 mM; 50 μL) was added to the mixture to start the metabolic reaction. The reaction mixture was incubated at 37 °C for 0, 3, 6, 15, 30, 45, and 60 min. The mixture (20 μL) was sampled and quenched with 180 μL of acetonitrile with internal standard (Donepezil 50 ng/mL) to terminate the metabolic reaction at each time point. Ultrapure water (80 μL) was added, and contents in the microcentrifuge tubes were centrifuged at 3800 rpm at 4 °C for 10 min. […] Each set of experiments was repeated three times in human, rat, and mouse liver microsomes. The concentration of the compounds versus time was plotted to determine the elimination rate constant (Kel). The intrinsic clearance (Clint) and half-life (t1/2) were calculated using the following equations.

KEAP1-NRF2 interaction = molecular target: T1, KEAP1-NRF2 interaction (Homo sapiens, UniProt Q14145); assay: KEAP1-Nrf2 inhibitor screening, fluorescence polarisation assay; assay type: binding; conditions: KEAP1 Kelch domain, read-out: IC50, NRF2-KEAP1 inhibition
T1 construct: purchased BPS Bioscience
T1 sequence (Q14145 2-624 limits assumed): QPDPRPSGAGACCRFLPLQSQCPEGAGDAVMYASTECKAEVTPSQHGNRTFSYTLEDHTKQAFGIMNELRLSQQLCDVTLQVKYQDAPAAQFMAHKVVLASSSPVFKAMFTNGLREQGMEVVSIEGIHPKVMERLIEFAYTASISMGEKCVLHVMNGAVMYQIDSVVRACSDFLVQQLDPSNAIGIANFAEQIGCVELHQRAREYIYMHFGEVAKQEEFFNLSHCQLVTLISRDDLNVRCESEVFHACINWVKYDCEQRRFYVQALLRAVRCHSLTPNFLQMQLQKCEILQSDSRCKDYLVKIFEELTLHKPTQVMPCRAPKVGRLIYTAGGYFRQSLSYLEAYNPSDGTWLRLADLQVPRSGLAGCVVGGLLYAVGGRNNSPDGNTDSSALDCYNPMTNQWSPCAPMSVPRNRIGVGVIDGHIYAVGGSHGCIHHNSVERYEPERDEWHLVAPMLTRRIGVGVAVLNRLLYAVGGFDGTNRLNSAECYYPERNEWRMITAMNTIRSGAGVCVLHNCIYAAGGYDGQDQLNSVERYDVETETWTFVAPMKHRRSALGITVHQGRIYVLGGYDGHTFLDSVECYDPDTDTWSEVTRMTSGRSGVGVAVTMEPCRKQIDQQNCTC
Experimental: The KEAP1-Nrf2 inhibitor screening assay kit (BPS Bioscience, San Diego, California, USA) was used to determine the effect of STCs in inhibiting KEAP1-NRF2 interaction following the manufacturer’s protocol and our reported method. The STC solutions were diluted with the assay buffer, and 5 μL of the STC solutions were incubated at room temperature for 30 min in the peptide mixture containing 0.5 μL NRF2 peptide (1 μM) and 20 μL KEAP1 (15 ng/μL). The fluorescence polarisation (FP) was measured using a microplate reader at λex 485 nm and λem 530 nm. The following equation was used to determine the per cent KEAP1-NRF2 inhibitory effect of the STCs. Keap1−Nrf2 inhbitory activity %=1−Relative FP of STC/Relative FP of postive control×100

GSK-3β = molecular target: T2, GSK-3β (Homo sapiens, UniProt P49841); assay: GSK-3β kinase ADP-Glo assay; assay type: biochemical; conditions: ATP 25 μM, read-out: IC50, GSK-3β enzyme activity
T2 construct: purchased Promega
T2 sequence (P49841 whole entry): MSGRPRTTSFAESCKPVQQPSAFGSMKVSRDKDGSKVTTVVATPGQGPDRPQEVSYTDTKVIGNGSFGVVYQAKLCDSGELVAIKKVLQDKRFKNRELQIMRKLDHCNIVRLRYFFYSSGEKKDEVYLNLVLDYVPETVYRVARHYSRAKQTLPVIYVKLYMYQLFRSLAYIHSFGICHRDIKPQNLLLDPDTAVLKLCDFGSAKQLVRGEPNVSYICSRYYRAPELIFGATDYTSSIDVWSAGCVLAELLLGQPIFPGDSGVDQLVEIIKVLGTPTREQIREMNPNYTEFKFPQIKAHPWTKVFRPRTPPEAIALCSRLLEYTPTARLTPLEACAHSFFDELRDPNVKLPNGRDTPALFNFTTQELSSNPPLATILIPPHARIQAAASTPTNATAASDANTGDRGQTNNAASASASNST
Experimental: The effect of STCs on GSK-3β activity was determined using GSK-3β kinase enzyme (Promega, WI, USA) and ADP-Glo^TM kinase assay (Promega, USA) following the manufacturer’s protocol and reported method. The STCs were dissolved in the kinase buffer to prepare different concentrations (10, 1, 0.1, 0.01, and 0.001 μM). One microliter of the test compounds was added to each well (384 well plate), followed by the addition of 2 μL of GSK-3β kinase (1 ng), 2 μL of the GSK-3β substrate (0.4 μg), and 2 μL of the ATP (25 μM), and incubated for 60 min. Then, 5 μL of ADP-Glo^TM reagent was added and incubated further for 40 min. Then 10 μL of kinase detection reagent was added and incubated for 30 min. The luminescence was recorded using a SpectraMax®L microplate reader (Molecular Devices, San Jose, CA, USA). The IC50 (concentration of the test compound required to produce half-maximal […]) from dose-response curves using non-linear regression analysis using GraphPad Prism (9.5.0; San Diego, CA, USA) software.

[2] = Liver microsomal stability, human; assay type: in vitro ADME; conditions: human liver microsomes, 1 μM (verapamil 0.5 μM)
Experimental: as §1

[3] = Liver microsomal stability, mouse; assay type: in vitro ADME; conditions: mouse liver microsomes, 1 μM (verapamil 0.5 μM)
Experimental: as §1

[4] = tested on: NAD(P)H quinone oxidoreductase 1 (NQO1); assay: Prochaska microtiter plate bioassay, NQO1 induction in Hepa-1c1c7 cells; assay type: cell-based, mouse; conditions: Mus musculus, Hepa-1c1c7, 48 h, Hepa-1c1c7 cells, 48 h; read-out: CD (concentration required to double the NQO1 level)
Experimental: The effect of shogaol thiophene compounds (STCs) on NRF2 activation is determined by measuring the NAD(P)H quinone oxidoreductase 1 (NQO1) inducer activity, as reported in our previous studies. The mouse hepatoma cells (Hepa-1c1c7, 1 × 10^4 per well) were incubated with STCs (10, 1, 0.1, 0.01, and 0.001 µM) for 48 h. The cells were lysed using digitonin (0.8 mg/mL and 2 mM EDTA; Acros, UK), and the protein concentration was determined using Bradford’s assay kit (Thermo Fisher Scientific, USA). The cell lysate was incubated with a reaction mixture of 0.5 M Tris-Cl buffer (Calbiochem, USA), 7.5 mM FAD (Acros, UK), 150 mM glucose-6-phosphate (Calbiochem, San Diego, CA, USA), 2 U/mL glucose-6-phosphate dehydrogenase (Calbiochem, USA), 50 mM NADP+ (Sigma Aldrich, USA), 25 mM menadione (Sigma Aldrich, USA), and 0.7 mM MTT (Sigma Aldrich, USA) at 37 °C for 5 min. The absorbance was recorded at 610 nm using a microplate reader (Spectramax M3, Molecular Devices, San Jose, CA, USA), and the values were normalised to the total protein content.

| SMILES | Clint [1] [mL/min/g liver] | half-life at 1 μM [1] [min] | IC50 (KEAP1-NRF2 interaction) [nM] | IC50 (GSK-3β) [nM] | Clint [2] [mL/min/g liver] | half-life at 1 μM [2] [min] | Clint [3] [mL/min/g liver] | half-life at 1 μM [3] [min] | EC (2-fold NQO1 induction) [4] [µM] |
| --- | --- | --- | --- | --- | --- | --- | --- | --- | --- |
| COc1cc(CCC(=O)/C=C/c2ccsc2)ccc1O [STC1, (E)-5-(4-Hydroxy-3-methoxyphenyl)-1(thiophen-3-yl)pent-1-en-3-one] | 10.63 ± 1.25 | 6.85 | 860 ± 110 | 420 ± 80 | 7.15 ± 1.24 | 10.2 | 11.24 ± 1.43 | 6.47 | 4.19 ± 0.44 |
| COc1cc(CCC(=O)/C=C/c2cccs2)ccc1O [STC2, (E)-5-(4-Hydroxy-3-methoxyphenyl)-1-(thiophen-2-yl)pent-1-en-3-one] | 9.46 ± 1.85 | 7.69 | 630 | 320 | 6.85 ± 1.62 | 10.6 | 10.64 ± 1.66 | 6.84 | 2.65 ± 0.27 |
| COc1cc(CCC(=O)/C=C/c2sccc2C)ccc1O [STC3, (E)-5-(4-Hydroxy-3-methoxyphenyl)-1-(3-methylthiophen-2-yl)pent-1-en-3-one] | 9.65 ± 1.54 | 7.54 | 540 | 240 | 6.18 ± 1.34 | 11.8 | 9.27 ± 2.14 | 7.85 | 1.84 ± 0.15 |
| COc1cc(CCC(=O)/C=C/c2cc(Br)cs2)ccc1O [STC4, (E)-5-(4-Hydroxy-3-methoxyphenyl)-1-(4-bromothiophen-2-yl)pent-1-en-3-one] | 8.79 ± 1.94 | 8.28 | 280 | 130 | 6.35 ± 1.79 | 11.5 | 9.67 ± 1.23 | 7.52 | 0.43 ± 0.09 |
| COc1cc(CCC(=O)/C=C/c2ccc(Br)s2)ccc1O [STC6, (E)-5-(4-Hydroxy-3-methoxyphenyl)-1-(5-bromothiophen-2-yl)pent-1-en-3-one] | 8.17 ± 1.74 | 8.91 | 290 | 140 | 5.32 ±1.08 | 13.7 | 7.23 ± 1.34 | 10.1 | 0.42 ± 0.11 |
| CCc1ccc(/C=C/C(=O)CCc2ccc(O)c(OC)c2)s1 [STC7, (E)-5-(4-Hydroxy-3-methoxyphenyl)-1-(5-ethylthiophen-2-yl)pent-1-en-3-one] | 8.52 ± 1.16 | 8.54 | 350 | 190 | 6.27 ± 1.44 | 11.6 | 7.85 ± 2.51 | 9.27 | 1.48 ± 0.34 |

— PMC9951879, “Synthesis of New Shogaol Analogues as NRF2 Activators and Evaluation of Their Anti-Inflammatory Activity, Modes of Action and Metabolic Stability” (Antioxidants, 2023)
